Experimental findings from patent US20100075907A1, “NEUROMEDIN U RECEPTOR AGONISTS AND USES THEREOF” (priority 2006, published 2010) are described below.

One experiment addresses mouse NMUR2 (Mus musculus, UniProt Q8BZ39). The experiment in a line: FLIPR calcium mobilization assay, mouse NMUR2. More on the design: expressed in transfected cells; host or cells: FLP-In CHO or HEK-293 FLP-In cells (pcDNA5). As to conditions: for EC50: FLIPR. In kind it is cell-based. The source says:
(§1) Human, mouse or rat cDNAs encoding NMUR1 or NMUR2 (as described in Howard et al. Nature 406: 70-74 (2000) were subcloned in pcDNA5 (Invitrogen) and transfected into FLP-In CHO cells and HEK-293 FLP-In cells purchased from Invitrogen (Carlsbad, Calif.) using lipofectamine (Invitrogen). The Flp-In system allows integration and expression of a particular gene of interest at a specific genomic location utilizing the Flp recombinase from yeast. The transfected cells were selected by growth in medium containing 200 μg/mL hygromycin (Invitrogen). Populations were frozen at early passage numbers, and these stocks were used for further studies. Stable clones that expressed the mRNAs were identified functionally by FLIPR as well as by RT-PCR. […] Two different rodent NMUR1 cell lines were thus generated: one with the codon as predicted from the genomic databases and another cell line with an engineered methionine (ATG) as the start codon. Additionally, stable cell lines expressing the human receptors were generated in HEK-293/aeq17 cells which stably express the aequorin gene under the CMV promoter. The human NMUR2 cDNA was cloned into pcDNA3.1 and human NMUR1 was subcloned into pIRES-puro (Clontech, Mountain View, Calif.), after transfection cells were selected in media containing G418 and either hygromycin (NMUR2) or puromycin (NMUR1).
(§2) The NMU receptors signal primarily through Gαq/11 proteins; therefore calcium mobilization assays can be utilized for functional activity.
(§3) Stable cell lines expressing human and or rodent NMUR1 or human NMUR2 receptors were plated at a density of 12,000 cells per well overnight on poly-lysine coated 384-well black-walled plates. The following day, the media was removed from the plates and the cells were subsequently loaded with Fluo-3 (Molecular Probes), a calcium sensitive dye, diluted in FLIPR buffer (1× Hank's buffered saline containing 20 mM HEPES, 0.1% BSA, 2.5 mM probenecid (Sigma) and 1.6 mM TR40). All reagents are from Invitrogen unless otherwise noted. Peptide stocks were resuspended in DMSO at a stock concentration of 2 mM and diluted in FLIPR buffer on the day of the experiment to a 4 μM working stock solution.
(§4) After a 90 minute incubation at room-temperature, cell plates were loaded onto a FLIPR (Molecular Devices) to monitor cellular fluorescence (excitation=488 nm; emission=540 nm) before and after compound/peptide addition. Eight to twelve point dose responses were tested on NMUR-expressing cell lines using FLIPR with 1 μM peptide as the highest dose. The response after peptide addition was taken as the maximum fluorescence units minus the fluorescence immediately prior to stimulation for each well. EC50 values were calculated using GraphPad Prism (San Diego, Calif.) software.
(§5) In vitro responses of Neuromedin U receptor agonists (NMU1 to NMU25) in the FLIPR assay for human (Table 3), mouse (Table 4) and rat (Table 5) NMUR1 and NMUR2. EC50s are reported in nM values. Percent activity refers to the maximum response at 1 μM compared to the hNMU-25 response at the same concentration. NT=not tested.

Another experiment concerns the target hNMUR2 (Homo sapiens, UniProt Q9GZQ4). Kind of experiment: FLIPR calcium mobilization assay, human NMUR2. It counts as cell-based. More on the design: expressed in transfected cells; host or cells: FLP-In CHO or HEK-293 FLP-In cells (pcDNA5); HEK-293/aeq17 lines (pcDNA3.1) were also made. As to conditions: for EC50: FLIPR.
Excerpt: as §1, §2, §3, §4, §5

The mark [1] stands for this setting: maximum response at 1 μM compared to hNMU-25, mouse NMUR2.
[2] abbreviates: maximum response at 1 μM compared to hNMU-25, human NMUR2.

Starred links: 1 amine or outer side, 2 acyl side, 3 side chain; linkers in the order of their positions; H or OH if unused. Non-standard residues stand in square brackets, D forms with d. Residues, ends and D or L forms follow the SMILES beside them. No end group written: not given here. *: point of attachment. X1 = CC(C)CCC[C@@H](C)[C@H]1CC[C@H]2[C@@H]3CC=C4C[C@@H](OC(=O)C*)CC[C@]4(C)[C@H]3CC[C@]12C; X2 = CCN1C(=O)CC(SC[C@H](NC(C)=O)C(=O)NCCCOCCOCCOCCCN*)C1=O; Succinimide(1-Et,3-yl) = CCN1C(=O)CC(*)C1=O; Palmitoyl = CCCCCCCCCCCCCCCC(=O)*; Suc = O=C(CCC(=O)[*:2])[*:1]

mouse NMUR2, sequence (Q8BZ39 whole entry): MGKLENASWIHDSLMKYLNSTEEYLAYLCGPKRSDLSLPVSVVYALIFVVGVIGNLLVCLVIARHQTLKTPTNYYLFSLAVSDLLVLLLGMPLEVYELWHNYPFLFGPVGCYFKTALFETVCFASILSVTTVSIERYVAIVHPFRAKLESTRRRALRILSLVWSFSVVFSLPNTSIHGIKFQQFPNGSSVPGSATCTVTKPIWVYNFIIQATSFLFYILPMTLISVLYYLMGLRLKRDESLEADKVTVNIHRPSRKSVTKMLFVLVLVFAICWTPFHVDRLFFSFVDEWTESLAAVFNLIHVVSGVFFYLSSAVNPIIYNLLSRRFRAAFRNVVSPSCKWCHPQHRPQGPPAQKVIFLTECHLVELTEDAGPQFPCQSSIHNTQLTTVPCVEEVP
hNMUR2, sequence (Q9GZQ4 whole entry): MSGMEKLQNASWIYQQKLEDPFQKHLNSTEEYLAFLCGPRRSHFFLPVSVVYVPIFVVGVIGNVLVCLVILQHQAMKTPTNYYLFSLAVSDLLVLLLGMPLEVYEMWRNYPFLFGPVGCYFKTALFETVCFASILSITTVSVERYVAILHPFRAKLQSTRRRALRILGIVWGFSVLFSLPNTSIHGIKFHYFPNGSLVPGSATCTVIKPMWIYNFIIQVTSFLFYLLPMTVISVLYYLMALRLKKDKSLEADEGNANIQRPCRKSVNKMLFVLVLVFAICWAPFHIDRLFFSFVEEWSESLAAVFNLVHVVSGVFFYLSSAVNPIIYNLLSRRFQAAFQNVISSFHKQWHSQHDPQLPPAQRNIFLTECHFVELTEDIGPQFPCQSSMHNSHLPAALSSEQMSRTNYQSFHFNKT

In the case of `CC(=O)N[C@@H](CSCC(=O)O[C@H]1CC[C@@]2(C)C(=CC[C@H]3[C@@H]4CC[C@H]([C@H](C)CCCC(C)C)[C@@]4(C)CC[C@@H]32)C1)C(=O)NCC(=O)N[C@@H](Cc1ccc(O)cc1)C(=O)N[C@@H](Cc1ccccc1)C(=O)N[C@@H](CC(C)C)C(=O)N[C@@H](Cc1ccccc1)C(=O)N[C@@H](CCCNC(=N)N)C(=O)N1CCC[C@H]1C(=O)N[C@@H](CCCNC(=N)N)C(=O)N[C@@H](CC(N)=O)C(N)=O` [NMU11] (Ac-C(X1)GYFLFRPRN-NH2), the figures for the “% Activity” value at mouse NMUR2 (setting [1]) and on hNMUR2 (setting [2]) were 70.5% and 37.3%, respectively.

By EC50 is commonly meant the midpoint of the concentration-response curve. Usually IC50 stands for the concentration that inhibits the measured activity by half. Take `CCN1C(=O)CC(SC[C@H](NC(C)=O)C(=O)N[C@@H](Cc2ccccc2)C(=O)N[C@@H](CCCNC(=N)N)C(=O)N[C@H](C(=O)N[C@@H](CC(=O)O)C(=O)N[C@@H](CCC(=O)O)C(=O)N[C@@H](CCC(=O)O)C(=O)N[C@@H](Cc2ccccc2)C(=O)N[C@@H](CCC(N)=O)C(=O)N[C@@H](CO)C(=O)N2CCC[C@H]2C(=O)N[C@@H](Cc2ccccc2)C(=O)N[C@@H](C)C(=O)N[C@@H](CO)C(=O)N[C@@H](CCC(N)=O)C(=O)N[C@@H](CO)C(=O)N[C@@H](CCCNC(=N)N)C(=O)NCC(=O)N[C@@H](Cc2ccc(O)cc2)C(=O)N[C@@H](Cc2ccccc2)C(=O)N[C@H](C)C(=O)N[C@@H](Cc2c[nH]c3ccccc23)C(=O)N[C@@H](CCCNC(=N)N)C(=O)N2CCC[C@H]2C(=O)N[C@@H](CCCNC(=N)N)C(=O)N[C@@H](CC(N)=O)C(N)=O)C(C)C)C1=O` (some centres unmarked) [NMU13] (Ac-C(Succinimide(1-Et,3-yl))FRVDEEFQSPFASQSRGYF[dA]WRPRN-NH2): the EC50 at mouse NMUR2 (mouse NMUR2) and at hNMUR2 (human NMUR2) was greater than 1000 nM each time. Moreover, the IC50 at mouse NMUR2 (functional data, mouse R2) was greater than 1000 nM. The “% Activity” value on mouse NMUR2 (functional, mouse R2, relative to native hNMU responses) is 27%; at mouse NMUR2 (setting [1]), 0.0%; on hNMUR2 (functional, human R2, relative to native hNMU responses) it was 0%; on hNMUR2 (setting [2]) it was 0.0%.

Turning to `CCN1C(=O)CC(SC[C@H](NC(C)=O)C(=O)NCCCOCCOCCOCCCNC(=O)CCC(=O)N[C@@H](Cc2ccccc2)C(=O)N[C@@H](CC(C)C)C(=O)N[C@@H](Cc2ccccc2)C(=O)N[C@@H](CCCNC(=N)N)C(=O)N2CCC[C@H]2C(=O)N[C@@H](CCCNC(=N)N)C(=O)N[C@@H](CC(N)=O)C(N)=O)C1=O` (some centres unmarked) [NMU15, Ac-C1-Ttds-FLFRPRN-CONH2] ({X2-Suc}-FLFRPRN-NH2), the “% Activity” value at mouse NMUR2 (setting [1]) was 100%; at hNMUR2 (setting [2]), 101%.

On to `CCN1C(=O)CC(SC[C@H](NC(C)=O)C(=O)N[C@@H](C)C(=O)N[C@@H](CO)C(=O)N[C@@H](CCC(N)=O)C(=O)N[C@@H](CO)C(=O)N[C@@H](CCCNC(=N)N)C(=O)NCC(=O)N[C@@H](Cc2ccc(O)cc2)C(=O)N[C@@H](Cc2ccccc2)C(=O)N[C@@H](CC(C)C)C(=O)N[C@@H](Cc2ccccc2)C(=O)N[C@@H](CCCNC(=N)N)C(=O)N2CCC[C@H]2C(=O)N[C@@H](CCCNC(=N)N)C(=O)N[C@@H](CC(N)=O)C(N)=O)C1=O` (some centres unmarked) [NMU17] (Ac-C(Succinimide(1-Et,3-yl))ASQSRGYFLFRPRN-NH2), for which the results for the “% Activity” value at mouse NMUR2 (setting [1]) and at hNMUR2 (setting [2]) were 100% and 99.8%, respectively. Further, the EC50 on hNMUR2 (human NMUR2) turned out to be 1.5 nM.

For `CCN1C(=O)CC(SC[C@H](NC(C)=O)C(=O)N[C@@H](Cc2ccccc2)C(=O)N[C@@H](CCC(N)=O)C(=O)N[C@@H](CO)C(=O)N2CCC[C@H]2C(=O)N[C@@H](Cc2ccccc2)C(=O)N[C@@H](C)C(=O)N[C@@H](CO)C(=O)N[C@@H](CCC(N)=O)C(=O)N[C@@H](CO)C(=O)N[C@@H](CCCNC(=N)N)C(=O)NCC(=O)N[C@@H](Cc2ccc(O)cc2)C(=O)N[C@@H](Cc2ccccc2)C(=O)N[C@@H](CC(C)C)C(=O)N[C@@H](Cc2ccccc2)C(=O)N[C@@H](CCCNC(=N)N)C(=O)N2CCC[C@H]2C(=O)N[C@@H](CCCNC(=N)N)C(=O)N[C@@H](CC(N)=O)C(N)=O)C1=O` (some centres unmarked) [NMU19] (Ac-C(Succinimide(1-Et,3-yl))FQSPFASQSRGYFLFRPRN-NH2), the “% Activity” value at mouse NMUR2 (setting [1]) worked out at 100%; on hNMUR2 (setting [2]) it was 105%.

On to `CCN1C(=O)CC(SC[C@H](NC(C)=O)C(=O)N[C@@H](CSC2CC(=O)N(CC)C2=O)C(=O)N[C@@H](Cc2ccccc2)C(=O)N[C@@H](CCCNC(=N)N)C(=O)N[C@H](C(=O)N[C@@H](CC(=O)O)C(=O)N[C@@H](CCC(=O)O)C(=O)N[C@@H](CCC(=O)O)C(=O)N[C@@H](Cc2ccccc2)C(=O)N[C@@H](CCC(N)=O)C(=O)N[C@@H](CO)C(=O)N2CCC[C@H]2C(=O)N[C@@H](Cc2ccccc2)C(=O)N[C@@H](C)C(=O)N[C@@H](CO)C(=O)N[C@@H](CCC(N)=O)C(=O)N[C@@H](CO)C(=O)N[C@@H](CCCNC(=N)N)C(=O)NCC(=O)N[C@@H](Cc2ccc(O)cc2)C(=O)N[C@@H](Cc2ccccc2)C(=O)N[C@@H](CC(C)C)C(=O)N[C@@H](Cc2ccccc2)C(=O)N[C@@H](CCCNC(=N)N)C(=O)N2CCC[C@H]2C(=O)N[C@@H](CCCNC(=N)N)C(=O)N[C@@H](CC(N)=O)C(N)=O)C(C)C)C1=O` (some centres unmarked) [NMU22] (Ac-C(Succinimide(1-Et,3-yl))C(Succinimide(1-Et,3-yl))FRVDEEFQSPFASQSRGYFLFRPRN-NH2), for which the “% Activity” value was 100% on mouse NMUR2 (setting [1]) and 105% on hNMUR2 (setting [2]).

Regarding `CCCCCCCCCCCCCCCC(=O)N[C@@H](CSC1CC(=O)N(CC)C1=O)C(=O)N[C@@H](Cc1ccccc1)C(=O)N[C@@H](CCCNC(=N)N)C(=O)N[C@H](C(=O)N[C@@H](CC(=O)O)C(=O)N[C@@H](CCC(=O)O)C(=O)N[C@@H](CCC(=O)O)C(=O)N[C@@H](Cc1ccccc1)C(=O)N[C@@H](CCC(N)=O)C(=O)N[C@@H](CO)C(=O)N1CCC[C@H]1C(=O)N[C@@H](Cc1ccccc1)C(=O)N[C@@H](C)C(=O)N[C@@H](CO)C(=O)N[C@@H](CCC(N)=O)C(=O)N[C@@H](CO)C(=O)N[C@@H](CCCNC(=N)N)C(=O)NCC(=O)N[C@@H](Cc1ccc(O)cc1)C(=O)N[C@@H](Cc1ccccc1)C(=O)N[C@@H](CC(C)C)C(=O)N[C@@H](Cc1ccccc1)C(=O)N[C@@H](CCCNC(=N)N)C(=O)N1CCC[C@H]1C(=O)N[C@@H](CCCNC(=N)N)C(=O)N[C@@H](CC(N)=O)C(N)=O)C(C)C` (some centres unmarked) [NMU24] (Palmitoyl-C(Succinimide(1-Et,3-yl))FRVDEEFQSPFASQSRGYFLFRPRN-NH2), the “% Activity” value on mouse NMUR2 (setting [1]) came out at 82.4%; at hNMUR2 (setting [2]), 63.9%.

For “Ac-C2FQSPFASQSRGYFLFRPRN-CONH2 ({Ac-C(PEG 40 kDa)}-FQSPFASQSRGYFLFRPRN-NH2; not fully specified; printed as Ac-C2FQSPFASQSRGYFLFRPRN-CONH2) [NMU20, C2 = Cys(PEG)240 kDa]”, the EC50 was found to be 14.8 nM in the experiment with mouse NMUR2 (mouse NMUR2) and 13 nM in the experiment with hNMUR2 (human NMUR2).

With “Ac-C2FRVDEEFQSPFASQSRGYFLFRPRN-CONH2 [NMU9] ({Ac-C(PEG 40 kDa)}-FRVDEEFQSPFASQSRGYFLFRPRN-NH2) [C2 = Cys(PEG)240 kDa from Nektar (mPEG2-MAL-40 k)]”, the results for the EC50 with mouse NMUR2 (mouse NMUR2) and in the experiment with hNMUR2 (human NMUR2) were 19 nM and 91.1 nM, respectively. Also, the “% Activity” value with hNMUR2 (setting [2]) came to 94.3%.

For the compound Ac-FRVDEEFQSPFASQSRGYFLFRPRN-NH2 [NMU2], the EC50 is 1.2 nM on mouse NMUR2 (mouse NMUR2) and 2.6 nM on hNMUR2 (human NMUR2). Further, the “% Activity” value at mouse NMUR2 (setting [1]) is given as 100%; at hNMUR2 (setting [2]), 97.4%.

Consider Ac-FRVDEEFQSPFASQSRPYFLFRPRN-NH2 [NMU5], for which the EC50 on mouse NMUR2 (mouse NMUR2) is 1 nM. The figures for the “% Activity” value at mouse NMUR2 (setting [1]) and on hNMUR2 (setting [2]) were 100% and 98.1%, respectively.

Consider GYFLFRPRN-NH2 [NMU3], for which the “% Activity” value at mouse NMUR2 (setting [1]) and at hNMUR2 (setting [2]) was 100% each time.

Turning to H-FRVDEEFQSPFASQSRPYFLFRPRN-NH2 [NMU4], the results for the EC50 on mouse NMUR2 (mouse NMUR2) and on hNMUR2 (human NMUR2) were 1.2 nM and 2.6 nM, respectively. Besides, the “% Activity” value at mouse NMUR2 (setting [1]) and on hNMUR2 (setting [2]) was 100% throughout.
